Results taken from ChEMBL document CHEMBL1649268, “Comparative in vitro activity profile of oritavancin against recent gram-positive clinical isolates” (2009).
≈ marks a conversion by molar mass, not a printed value.

How the values were obtained:
Type in all cases: functional
[1] = tested on: Staphylococcus haemolyticus; experiment: Antimicrobial activity against oxacillin-susceptible Staphylococcus haemolyticus clinical isolates by broth microdilution method
[2] = tested on: Enterococcus faecium; experiment: Antimicrobial activity against vancomycin-susceptible Enterococcus faecium clinical isolates by broth microdilution method
[3] = tested on: Enterococcus faecalis; experiment: Antimicrobial activity against Enterococcus faecalis expressing VanB gene clinical isolates by broth microdilution method
[4] = tested on: Enterococcus faecalis; experiment: Antimicrobial activity against Enterococcus faecalis expressing VanA gene clinical isolates assessed as percent susceptible isolates by broth microdilution method
[5] = tested on: Enterococcus faecalis; experiment: Antimicrobial activity against Enterococcus faecalis expressing VanA gene clinical isolates assessed as resistant isolates by broth microdilution method
[6] = tested on: Staphylococcus aureus; experiment: Antimicrobial activity against oxacillin-susceptible Staphylococcus aureus clinical isolates by broth microdilution method
[7] = tested on: Enterococcus faecalis; experiment: Antimicrobial activity against vancomycin-susceptible Enterococcus faecalis clinical isolates assessed as resistant isolates by broth microdilution method
[8] = tested on: Staphylococcus epidermidis; experiment: Antimicrobial activity against oxacillin-susceptible Staphylococcus epidermidis clinical isolates by broth microdilution method
[9] = tested on: Enterococcus faecium; experiment: Antimicrobial activity against vancomycin-susceptible Enterococcus faecium clinical isolates assessed as percent susceptible isolates by broth microdilution method
[10] = tested on: Enterococcus faecalis; experiment: Antimicrobial activity against Enterococcus faecalis expressing VanB gene clinical isolates assessed as resistant isolates by broth microdilution method
[11] = tested on: Staphylococcus haemolyticus; experiment: Antimicrobial activity against oxacillin-susceptible Staphylococcus haemolyticus clinical isolates assessed as percent susceptible isolates by broth microdilution method
[12] = tested on: Staphylococcus haemolyticus; experiment: Antimicrobial activity against oxacillin-resistant Staphylococcus haemolyticus clinical isolates by broth microdilution method
[13] = tested on: Enterococcus faecalis; experiment: Antimicrobial activity against vancomycin-nonsusceptible Enterococcus faecalis clinical isolates by broth microdilution method
[14] = tested on: Enterococcus faecalis; experiment: Antimicrobial activity against Enterococcus faecalis clinical isolates by broth microdilution method
[15] = tested on: Enterococcus faecium; experiment: Antimicrobial activity against Enterococcus faecium clinical isolates assessed as resistant isolates by broth microdilution method
[16] = tested on: Staphylococcus haemolyticus; experiment: Antimicrobial activity against Staphylococcus haemolyticus clinical isolates by broth microdilution method
[17] = tested on: Enterococcus faecium; experiment: Antimicrobial activity against Enterococcus faecium expressing VanA gene clinical isolates assessed as resistant isolates by broth microdilution method
[18] = tested on: Enterococcus faecium; experiment: Antimicrobial activity against Enterococcus faecium expressing VanA gene clinical isolates by broth microdilution method
[19] = tested on: Staphylococcus aureus; experiment: Antimicrobial activity against oxacillin-susceptible Staphylococcus aureus clinical isolates assessed as percent susceptible isolates by broth microdilution method
[20] = tested on: Staphylococcus aureus; experiment: Antimicrobial activity against Staphylococcus aureus clinical isolates by broth microdilution method
[21] = tested on: Enterococcus faecalis; experiment: Antimicrobial activity against vancomycin-susceptible Enterococcus faecalis clinical isolates assessed as percent susceptible isolates by broth microdilution method
[22] = tested on: Enterococcus faecalis; experiment: Antimicrobial activity against vancomycin-nonsusceptible Enterococcus faecalis clinical isolates assessed as resistant isolates by broth microdilution method
[23] = tested on: Enterococcus faecalis; experiment: Antimicrobial activity against vancomycin-susceptible Enterococcus faecalis clinical isolates by broth microdilution method
[24] = tested on: Enterococcus faecalis; experiment: Antimicrobial activity against Enterococcus faecalis expressing VanA gene clinical isolates by broth microdilution method
[25] = tested on: Staphylococcus haemolyticus; experiment: Antimicrobial activity against Staphylococcus haemolyticus clinical isolates assessed as percent susceptible isolates by broth microdilution method
[26] = tested on: Enterococcus faecium; experiment: Antimicrobial activity against Enterococcus faecium expressing VanA gene clinical isolates assessed as percent susceptible isolates by broth microdilution method
[27] = tested on: Staphylococcus epidermidis; experiment: Antimicrobial activity against oxacillin-susceptible Staphylococcus epidermidis clinical isolates assessed as percent susceptible isolates by broth microdilution method
[28] = tested on: Staphylococcus haemolyticus; experiment: Antimicrobial activity against oxacillin-resistant Staphylococcus haemolyticus clinical isolates assessed as percent susceptible isolates by broth microdilution method
[29] = tested on: Enterococcus faecium; experiment: Antimicrobial activity against vancomycin-nonsusceptible Enterococcus faecium clinical isolates assessed as percent susceptible isolates by broth microdilution method
[30] = tested on: Enterococcus faecium; experiment: Antimicrobial activity against vancomycin-nonsusceptible Enterococcus faecium clinical isolates by broth microdilution method
[31] = tested on: Staphylococcus epidermidis; experiment: Antimicrobial activity against Staphylococcus epidermidis clinical isolates assessed as percent susceptible isolates by broth microdilution method
[32] = tested on: Staphylococcus epidermidis; experiment: Antimicrobial activity against oxacillin-resistant Staphylococcus epidermidis clinical isolates by broth microdilution method
[33] = tested on: Enterococcus faecalis; experiment: Antimicrobial activity against vancomycin-nonsusceptible Enterococcus faecalis clinical isolates assessed as percent susceptible isolates by broth microdilution method
[34] = tested on: Enterococcus faecalis; experiment: Antimicrobial activity against Enterococcus faecalis expressing VanB gene clinical isolates assessed as percent susceptible isolates by broth microdilution method
[35] = tested on: Enterococcus faecium; experiment: Antimicrobial activity against Enterococcus faecium expressing VanB gene clinical isolates assessed as percent susceptible isolates by broth microdilution method
[36] = tested on: Staphylococcus epidermidis; experiment: Antimicrobial activity against Staphylococcus epidermidis clinical isolates by broth microdilution method
[37] = tested on: Enterococcus faecium; experiment: Antimicrobial activity against Enterococcus faecium clinical isolates assessed as percent susceptible isolates by broth microdilution method
[38] = tested on: Enterococcus faecium; experiment: Antimicrobial activity against Enterococcus faecium clinical isolates by broth microdilution method
[39] = tested on: Staphylococcus aureus; experiment: Antimicrobial activity against oxacillin-resistant Staphylococcus aureus clinical isolates by broth microdilution method
[40] = tested on: Enterococcus faecium; experiment: Antimicrobial activity against Enterococcus faecium expressing VanB gene clinical isolates assessed as resistant isolates by broth microdilution method
[41] = tested on: Enterococcus faecium; experiment: Antimicrobial activity against Enterococcus faecium expressing VanB gene clinical isolates by broth microdilution method
[42] = tested on: Staphylococcus aureus; experiment: Antimicrobial activity against Staphylococcus aureus clinical isolates assessed as percent susceptible isolates by broth microdilution method
[43] = tested on: Enterococcus faecalis; experiment: Antimicrobial activity against Enterococcus faecalis clinical isolates assessed as percent susceptible isolates by broth microdilution method
[44] = tested on: Enterococcus faecium; experiment: Antimicrobial activity against vancomycin-susceptible Enterococcus faecium clinical isolates assessed as resistant isolates by broth microdilution method
[45] = tested on: Enterococcus faecalis; experiment: Antimicrobial activity against Enterococcus faecalis clinical isolates assessed as resistant isolates by broth microdilution method
[46] = tested on: Enterococcus faecium; experiment: Antimicrobial activity against vancomycin-nonsusceptible Enterococcus faecium clinical isolates assessed as resistant isolates by broth microdilution method
[47] = tested on: Staphylococcus epidermidis; experiment: Antimicrobial activity against oxacillin-resistant Staphylococcus epidermidis clinical isolates assessed as percent susceptible isolates by broth microdilution method
[48] = tested on: Staphylococcus epidermidis; experiment: Antimicrobial activity against oxacillin-susceptible Staphylococcus epidermidis clinical isolates assessed as resistant isolates by broth microdilution method
[49] = tested on: Staphylococcus aureus; experiment: Antimicrobial activity against Staphylococcus aureus clinical isolates assessed as resistant isolates by broth microdilution method
[50] = tested on: Staphylococcus haemolyticus; experiment: Antimicrobial activity against Staphylococcus haemolyticus clinical isolates assessed as resistant isolates by broth microdilution method
[51] = tested on: Staphylococcus aureus; experiment: Antimicrobial activity against oxacillin-resistant Staphylococcus aureus clinical isolates assessed as percent susceptible isolates by broth microdilution method
[52] = tested on: Staphylococcus haemolyticus; experiment: Antimicrobial activity against oxacillin-susceptible Staphylococcus haemolyticus clinical isolates assessed as resistant isolates by broth microdilution method
[53] = tested on: Staphylococcus epidermidis; experiment: Antimicrobial activity against Staphylococcus epidermidis clinical isolates assessed as resistant isolates by broth microdilution method
[54] = tested on: Staphylococcus aureus; experiment: Antimicrobial activity against oxacillin-resistant Staphylococcus aureus clinical isolates assessed as resistant isolates by broth microdilution method
[55] = tested on: Staphylococcus aureus; experiment: Antimicrobial activity against oxacillin-susceptible Staphylococcus aureus clinical isolates assessed as resistant isolates by broth microdilution method
[56] = tested on: Staphylococcus epidermidis; experiment: Antimicrobial activity against oxacillin-resistant Staphylococcus epidermidis clinical isolates assessed as resistant isolates by broth microdilution method
[57] = tested on: Staphylococcus haemolyticus; experiment: Antimicrobial activity against oxacillin-resistant Staphylococcus haemolyticus clinical isolates assessed as resistant isolates by broth microdilution method

`CC(=O)NC[C@H]1CN(c2ccc(N3CCOCC3)c(F)c2)C(=O)O1` [LINEZOLID] showed an MIC90 [1] of 1 µg/mL (≈ 2.96 µM), an MIC90 [2] of 2 µg/mL (≈ 5.93 µM) and an MIC90 [3] of 2 µg/mL (≈ 5.93 µM). The Activity [4] was 98.5%, the Activity [5] was 1.5% and the MIC90 [6] was 2 µg/mL (≈ 5.93 µM). For the same compound, the Activity [7] was 0.1%, the MIC90 [8] was 1 µg/mL (≈ 2.96 µM) and the Activity [9] was 99.4%. For the same compound, the Activity [10] was 0%, the Activity [11] was 100% and the MIC90 [12] was 1 µg/mL (≈ 2.96 µM). The MIC90 [13] was 2 µg/mL (≈ 5.93 µM), the MIC90 [14] was 2 µg/mL (≈ 5.93 µM) and the Activity [15] was 0.4%. For the same compound, the MIC90 [16] was 1 µg/mL (≈ 2.96 µM), the Activity [17] was 0.5% and the MIC90 [18] was 2 µg/mL (≈ 5.93 µM). The Activity [19] was 100%, the MIC90 [20] was 2 µg/mL (≈ 5.93 µM) and the Activity [21] was 99.9%. The Activity [22] was 1.1%, the MIC90 [23] was 2 µg/mL (≈ 5.93 µM) and the MIC90 [24] was 2 µg/mL (≈ 5.93 µM). For the same compound, the Activity [25] was 99.3%, the Activity [26] was 99.5% and the Activity [27] was 99.7%. It also gave an Activity [28] of 99%, an Activity [29] of 99.1% and an MIC90 [30] of 2 µg/mL (≈ 5.93 µM). The Activity [31] was 99.4%, the MIC90 [32] was 1 µg/mL (≈ 2.96 µM) and the Activity [33] was 98.9%. For the same compound, the Activity [34] was 100%, the Activity [35] was 93.1% and the MIC90 [36] was 1 µg/mL (≈ 2.96 µM). For the same compound, the Activity [37] was 99.3%, the MIC90 [38] was 2 µg/mL (≈ 5.93 µM) and the MIC90 [39] was 2 µg/mL (≈ 5.93 µM). The Activity [40] was 3.4%, the MIC90 [41] was 2 µg/mL (≈ 5.93 µM) and the Activity [42] was 100%. It also gave an Activity [43] of 99.8%, an Activity [44] of 0% and an Activity [45] of 0.2%. It also gave an Activity [46] of 0.6%.
With `CCCCCCCCCC(=O)N[C@@H](Cc1c[nH]c2ccccc12)C(=O)N[C@H](CC(N)=O)C(=O)N[C@@H](CC(=O)O)C(=O)N[C@@H]1C(=O)NCC(=O)N[C@@H](CCCN)C(=O)N[C@@H](CC(=O)O)C(=O)N[C@H](C)C(=O)N[C@@H](CC(=O)O)C(=O)NCC(=O)N[C@H](CO)C(=O)N[C@@H]([C@H](C)CC(=O)O)C(=O)N[C@@H](CC(=O)c2ccccc2N)C(=O)O[C@@H]1C` the MIC90 [1] was 0.5 µg/mL (≈ 0.309 µM), the MIC90 [2] was 4 µg/mL (≈ 2.47 µM) and the MIC90 [3] was 2 µg/mL (≈ 1.23 µM). The Activity [4] was 98.5%, the MIC90 [6] was 0.5 µg/mL (≈ 0.309 µM) and the MIC90 [8] was 0.5 µg/mL (≈ 0.309 µM). For the same compound, the Activity [9] was 98.3%, the Activity [11] was 100% and the MIC90 [12] was 0.5 µg/mL (≈ 0.309 µM). The MIC90 [13] was 2 µg/mL (≈ 1.23 µM), the MIC90 [14] was 2 µg/mL (≈ 1.23 µM) and the MIC90 [16] was 0.5 µg/mL (≈ 0.309 µM). For the same compound, the Activity [47] was 99.8%, the MIC90 [18] was 4 µg/mL (≈ 2.47 µM) and the Activity [19] was 99.9%. It also gave an MIC90 [20] of 0.5 µg/mL (≈ 0.309 µM), an Activity [21] of 99.9% and an MIC90 [23] of 2 µg/mL (≈ 1.23 µM). It also gave an MIC90 [24] of 2 µg/mL (≈ 1.23 µM), an Activity [25] of 100% and an Activity [26] of 98.8%. It also gave an Activity [27] of 100%, an Activity [29] of 98.5% and an MIC90 [30] of 4 µg/mL (≈ 2.47 µM). The Activity [31] was 99.9%, the MIC90 [32] was 0.5 µg/mL (≈ 0.309 µM) and the Activity [33] was 98.9%. The Activity [34] was 100%, the Activity [35] was 93.1% and the MIC90 [36] was 0.5 µg/mL (≈ 0.309 µM). It also gave an Activity [37] of 98.4%, an MIC90 [38] of 4 µg/mL (≈ 2.47 µM) and an MIC90 [39] of 0.5 µg/mL (≈ 0.309 µM). For the same compound, the MIC90 [41] was 4 µg/mL (≈ 2.47 µM), the Activity [42] was 99.9% and the Activity [43] was 99.9%.
Work on `Cc1onc(-c2ccccc2)c1C(=O)N[C@@H]1C(=O)N2[C@@H]1SC(C)(C)[C@@H]2C(=O)O` [OXACILLIN] yielded an MIC90 [1] of 0.25 µg/mL (≈ 0.623 µM), an MIC90 [6] of 0.5 µg/mL (≈ 1.25 µM) and an MIC90 [8] of 0.12 µg/mL (≈ 0.299 µM). For the same compound, the “Percent of isolates resistant” value [48] was 0%, the Activity [11] was 100% and the MIC90 [12] was over 8 µg/mL. The Percent resistant isolates [49] was 53.8%, the MIC90 [16] was over 8 µg/mL and the Activity [47] was 0%. The Resistant isolates [50] was 73.2%, the Activity [19] was 100% and the MIC90 [20] was over 8 µg/mL. For the same compound, the Activity [25] was 26.8%, the Activity [27] was 100% and the Activity [28] was 0%. The Activity [51] was 0%, the Activity [52] was 0% and the “Percent of isolates resistant” value [53] was 72.7%. For the same compound, the Activity [31] was 27.3%, the MIC90 [32] was over 8 µg/mL and the Percent resistant isolates [54] was 100%. The “Percent of isolates resistant” value [55] was 0%, the MIC90 [36] was over 8 µg/mL and the MIC90 [39] was over 8 µg/mL. For the same compound, the “Percent of isolates resistant” value [56] was 100%, the Activity [57] was 100% and the Activity [42] was 46.2%.
